We go through one molecule from patent US20080293818A1, “Regulator of Physiological Function of Ghrelin and Use Thereof” (priority 2004, published 2008).

Assay [1] deals with n-heptanoyl ghrelin in the stomach. The assay is described as follows: Molecular forms of stomach ghrelin after glyceryl triheptanoate ingestion (HPLC, C-RIA and N-RIA). It is filed as in vivo, mouse. Here is the method: Male C57BL/6J mice weighing 20-25 g (10-12 week old) were maintained under controlled temperature (21-23° C.) and light conditions (light on 0700-1900) with ad libitum access to food and water. Medium-chain fatty acids (MCFAs), i.e., n-hexanoic, n-octanoic, and n-lauric acids (Sigma-Aldrich Japan Co., Ltd., Tokyo), were dissolved in water at 5 mg/ml. n-Palmitic acid, a common long-chain fatty acid (LCFA) (Sigma-Aldrich Japan Co., Ltd., Tokyo), was mixed into standard laboratory chow (CLEA Rodent Diet CE-2, CLEA Japan, Osaka) at a concentration of 1% (w/w), to equilibrate the total intake amount of this lipid to the other medium-chain fatty acids contained in the food. Medium- and long-chain triglycerides (MCTs and LCTs), i.e., glyceryl trihexanoate, trioctanoate, tridecanoate and tripalmitates (Wako Pure Chemical, Osaka, Japan), were mixed with standard laboratory chow at a concentration of 5% (w/w). Whole stomach tissues from treated mice were collected at the indicated times (0-14 days) after ingesting the free fatty acid- or triacylglyceride-containing food. Fresh tissue samples from these mice were diced and boiled for 5 minutes in a 10-fold volume of water. The tissue-containing solution was then adjusted to 1M acetic acid after cooling and then homogenized with a Polytron mixer. The supernatant, obtained after centrifugation at 15,000 rpm for 15 minutes, was then lyophilized. The lyophilized material was dissolved in RIA buffer and subjected to ghrelin C- and N-RIA. To elucidate the forms of ghrelin peptides modified by different acyl groups, extracted stomach peptides were collected using a Sep-Pak Plus C18 cartridge (Waters, Milford, Mass.) and subjected to C18 RP-HPLC (Symmetry 300, 3.9×150 mm, Waters) with a linear gradient from 10 to 60% CH3CN/0.1% TFA at a flow rate of 1.0 ml/minute for 40 minutes. Five hundred micro-litter fractions were collected. Ghrelin peptide content in each fraction was measured by ghrelin C- and N-RIA as described above. Degradation of ghrelin was not observed during the extraction.
Male C57BL/6J mice weighing 20-25 g (10-12 week old) were maintained under controlled temperature (21-23° C.) and light conditions (light on 0700-1900) with ad libitum access to food and water. Glyceryl triheptanoate (Fluka Chemie GmbH, Buchs, Switzerland) was mixed with standard laboratory chow at a concentration of 5% (w/w). Four days after mice were fed glyceryl triheptanoate-containing food, stomachs (total 1,000 mg) were recovered from mice (n=7). The total consumption of glyceryl triheptanoate-containing food was approximately 13.5 g/mouse, amounting to 675 mg total glyceryl triheptanoate ingested by each mouse. Stomachs were minced and boiled for 5 minutes in 5× volumes of water to inactivate intrinsic proteases. […]

For the next assay, the system named is plasma ghrelin peptides. Briefly: Molecular forms of circulating (plasma) ghrelin after glyceryl triheptanoate ingestion. It is filed as in vivo, mouse. The conditions noted are these: fed 4 days, HPLC, C-RIA. Here is the method: Plasma samples were prepared as previously described [D2]. Whole blood samples were immediately transferred to chilled polypropylene tubes containing EDTA-2 Na (1 mg/ml) and aprotinin (1,000 kallikrein inactivator units/ml) and centrifuged at 4° C. Immediately after separation of the plasma, hydrogen chloride was added to the sample at final concentration of 0.1 N and then diluted with an equal volume of physiological saline. The sample was loaded onto a Sep-Pak C18 cartridge (Waters, Milford, Mass.) pre-equilibrated with 0.1% trifluoroacetic acid (TFA) and 0.9% NaCl. The cartridge was washed with 0.9% NaCl and 5% acetonitrile (CH3CN)/0.1% TFA, and then eluted with 60% CH3CN/0.1% TFA. The eluate was then lyophilized and residual materials were redissolved in 1 M acetic acid (AcOH) and adsorbed onto a SP-Sephadex C-25 column (H^+-form, Pharmacia, Uppsala, Sweden) pre-equilibrated in 1 M AcOH. Successive elution with 1 M AcOH, 2 M pyridine, and 2 M pyridine-AcOH (pH 5.0) provided three fractions: SP-I, SP-II and SP-III. […] Ghrelin peptide content in each fraction was measured by ghrelin C-RIA as described above.
Plasma samples collected from control mice fed standard chow (A) and glyceryl triheptanoate-treated mice (B) were fractionated by HPLC and measured for ghrelin immunoreactivity by C-RIA. […]

Where [2] appears, read: stomach extract, HPLC fraction, 0.2 mg stomach tissue equivalent.

With `CCCCCCC(=O)OCC(COC(=O)CCCCCC)OC(=O)CCCCCC` [glyceryl triheptanoate], in assay [1] (mice, HPLC, C-RIA / N-RIA), the “appearance of peak b / d (n-heptanoyl ghrelin) immunoreactivity in stomach extracts” value is reported as “observed only in mice fed glyceryl triheptanoate”. Further, in assay [1] (setting [2]), the “concentration of peak b (n-heptanoyl ghrelin) determined by C-RIA” value is 466.3 fmol/tube and the “concentration of peak d (n-heptanoyl ghrelin) measured by N-RIA” value turned out to be 74.9 fmol/tube. The “appearance of plasma peak f (retention time of n-heptanoyl ghrelin)” value in the assay with plasma ghrelin peptides is recorded as “observed only in samples from glyceryl triheptanoate-treated mice”.
